# Test results reported in patent publication US8952024B2, “Herbicidal pyrimidone derivatives” (E I du Pont de Nemours and Company, priority 2009, dated 2015).
# What was measured:
# Format in all cases: in vivo
# [1] = test system: wheat (Triticum aestivum); assay: Test A pre-/postemergence plant response
# From the text: (§1) Seeds of barnyardgrass (Echinochloa crus-galli), large crabgrass (Digitaria sanguinalis), giant foxtail (Setaria faberii), morningglory (Ipomoea spp.), pigweed (Amaranthus retroflexus), velvetleaf (Abutilon theophrasti), wheat (Triticum aestivum) and corn (Zea mays) were planted into a blend of loam soil and sand and treated preemergence with a directed soil spray using test chemicals formulated in a non-phytotoxic solvent mixture which included a surfactant. At the same time these species were also treated with postemergence applications of test compounds formulated in the same manner.
# (§2) Plants ranged in height from two to ten cm and were in the one- to two-leaf stage for the postemergence treatment. Treated plants and untreated controls were maintained in a greenhouse for approximately ten days, after which time all treated plants were compared to untreated controls and visually evaluated for injury. Plant response ratings, summarized in Table A, are based on a 0 to 100 scale where 0 is no effect and 100 is complete control. A dash (-) response means no test result.
# corn (Zea mays) = assay: Test A pre-/postemergence plant response
# From the text: as §1, §2
# [2] = test system: velvetleaf (Abutilon theophrasti); assay: Test A pre-/postemergence plant response
# From the text: as §1, §2
# [3] = test system: large crabgrass (Digitaria sanguinalis); assay: Test A pre-/postemergence plant response
# From the text: as §1, §2
# [4] = test system: pigweed (Amaranthus retroflexus); assay: Test A pre-/postemergence plant response
# From the text: as §1, §2
# [5] = test system: morningglory (Ipomoea spp.); assay: Test A pre-/postemergence plant response
# From the text: as §1, §2
# [6] = test system: barnyardgrass (Echinochloa crus-galli); assay: Test A pre-/postemergence plant response
# From the text: as §1, §2
# [7] = test system: giant foxtail (Setaria faberii); assay: Test A pre-/postemergence plant response
# From the text: as §1, §2
# rice (Oryza sativa) = assay: Test B flooded paddy test; conditions: for Plant response rating, Rice: Flood (flooded paddy test), 13 to 15 days; for Plant response rating, Flood, Rice: 250 g ai/ha, flooded paddy test, visual rating on 0 to 100 scale (0 no effect, 100 complete control) after 13 to 15 days
# From the text: (§3) Plant species in the flooded paddy test consisted of rice (Oryza sativa), umbrella sedge (Cyperus difformis), ducksalad (Heteranthera limosa) and barnyardgrass (Echinochloa crus-galli) grown to the 2-leaf stage for testing. At the time of treatment, test pots were flooded with water to 3 cm above the soil surface, treated by application of test compounds directly to the paddy water, and then maintained at that water depth for the duration of the test.
# (§4) Treated plants and controls were maintained in a greenhouse for 13 to 15 days, after which time all treated plants were visually evaluated and compared to controls. Plant response ratings, summarized in Table B, are based on a scale of 0 to 100 where 0 is no effect and 100 is complete control. A dash (-) response means no test result.
# [8] = test system: ducksalad (Heteranthera limosa); assay: Test B flooded paddy test; conditions: for Plant response rating, Ducksalad: Flood (flooded paddy test), 13 to 15 days; for Plant response rating, Flood, Ducksalad: 250 g ai/ha, flooded paddy test, visual rating on 0 to 100 scale (0 no effect, 100 complete control) after 13 to 15 days
# From the text: as §3, §4
# [9] = test system: barnyardgrass (Echinochloa crus-galli); assay: Test B flooded paddy test; conditions: for Plant response rating, Barnyardgrass: Flood (flooded paddy test), 13 to 15 days; for Plant response rating, Flood, Barnyardgrass: 250 g ai/ha, flooded paddy test, visual rating on 0 to 100 scale (0 no effect, 100 complete control) after 13 to 15 days
# From the text: as §3, §4
# [10] = test system: umbrella sedge (Cyperus difformis); assay: Test B flooded paddy test; conditions: for Plant response rating, Sedge, Umbrella: Flood (flooded paddy test), 13 to 15 days; for Plant response rating, Flood, Sedge, Umbrella: 250 g ai/ha, flooded paddy test, visual rating on 0 to 100 scale (0 no effect, 100 complete control) after 13 to 15 days
# From the text: as §3, §4
# [11] = Postemergence, 125 g ai/ha, 0 to 100 scale where 0 is no effect and 100 is complete control
# [12] = Postemergence, 500 g ai/ha, visual injury, 0 to 100 scale (0 no effect, 100 complete control), approx. ten days
# [13] = Preemergence, 125 g ai/ha, 0 to 100 scale, 0 = no effect, 100 = complete control
# [14] = Preemergence, 500 g ai/ha, 0 to 100 scale, 0 = no effect, 100 = complete control
# [15] = 125 g ai/ha, scale 0 to 100, 0 is no effect, 100 is complete control
# [16] = Flood, 31 g ai/ha, scale 0 to 100 (0 no effect, 100 complete control)
# [17] = Postemergence, 125 g ai/ha, visual injury, 0 to 100 scale (0 no effect, 100 complete control), approx. ten days
# [18] = Postemergence, 500 g ai/ha, 0 to 100 scale, 0 = no effect, 100 = complete control, approx. ten days
# [19] = Preemergence, 500 g ai/ha, visual injury, 0 to 100 scale (0 no effect, 100 complete control), approx. ten days
# [20] = 31 g ai/ha, scale of 0 to 100 where 0 is no effect and 100 is complete control
# [21] = 62 g ai/ha, scale 0 to 100, 0 is no effect, 100 is complete control
smiles,measurement,setting,value
"O=C1CCCC(O)=C1C(=O)c1cnc(-c2ccccc2)n(C2CC[S+]([O-])CC2)c1=O (mixture of isomers) [Compound 168, 5-[(2-hydroxy-6-oxo-1-cyclohexen-1-yl)carbonyl]-2-phenyl-3-(cis/trans-tetrahydro-1-oxido-2H-thiopyran-4-yl)-4(3H)-pyrimidinone]","Plant response rating, Wheat",[1]; [11],0
same,Wheat plant response rating,[1]; [12],50
same,"Plant response rating, Wheat",[1]; [13],0
same,"Plant response rating, Wheat",[1]; [14],0
same,"Plant response rating, Corn",corn (Zea mays); [11],20
same,Corn plant response rating,corn (Zea mays); [12],30
same,"Plant response rating, Corn",corn (Zea mays); [13],0
same,"Plant response rating, Corn",corn (Zea mays); [14],0
same,"Plant response rating, Velvetleaf",[2]; [11],100
same,Velvetleaf plant response rating,[2]; [12],100
same,"Plant response rating, Velvetleaf",[2]; [13],0
same,"Plant response rating, Velvetleaf",[2]; [14],60
same,"Plant response rating, Crabgrass, Large",[3]; [11],50
same,"Crabgrass, Large plant response rating",[3]; [12],90
same,"Plant response rating, Crabgrass, Large",[3]; [13],30
same,"Plant response rating, Crabgrass, Large",[3]; [14],80
same,"Plant response rating, Pigweed",[4]; [11],100
same,Pigweed plant response rating,[4]; [12],100
same,"Plant response rating, Pigweed",[4]; [13],10
same,"Plant response rating, Pigweed",[4]; [14],50
same,"Plant response rating, Morningglory",[5]; [11],100
same,Morningglory plant response rating,[5]; [12],100
same,"Plant response rating, Morningglory",[5]; [13],0
same,"Plant response rating, Morningglory",[5]; [14],70
same,"Plant response rating, Barnyardgrass",[6]; [11],30
same,Barnyardgrass plant response rating,[6]; [12],100
same,"Plant response rating, Barnyardgrass",[6]; [13],0
same,"Plant response rating, Barnyardgrass",[6]; [14],20
same,"Plant response rating, Foxtail, Giant",[7]; [11],50
same,"Foxtail, Giant plant response rating",[7]; [12],90
same,"Plant response rating, Foxtail, Giant",[7]; [13],10
same,"Plant response rating, Foxtail, Giant",[7]; [14],70
same,"Plant response rating, Rice",rice (Oryza sativa); [15],0
same,Rice plant response rating,rice (Oryza sativa); [16],0
same,"Plant response rating, Ducksalad",[8]; [15],30
same,Ducksalad plant response rating,[8]; [16],0
same,"Plant response rating, Barnyardgrass",[9]; [15],0
same,Barnyardgrass plant response rating,[9]; [16],0
same,"Plant response rating, Sedge, Umbrella",[10]; [15],20
same,"Sedge, Umbrella plant response rating",[10]; [16],0
CCn1ncc(C(=O)c2cnc(-c3ccccc3)n(-c3ccccc3)c2=O)c1OS(=O)(=O)c1ccc(C)cc1 [Compound 16],Wheat plant response rating,[1]; [17],0
same,"Plant response rating, Wheat",[1]; [18],10
same,"Plant response rating, Wheat",[1]; [13],0
same,"Plant response rating, Wheat",[1]; [19],0
same,Corn plant response rating,corn (Zea mays); [17],0
same,"Plant response rating, Corn",corn (Zea mays); [18],20
same,"Plant response rating, Corn",corn (Zea mays); [13],0
same,"Plant response rating, Corn",corn (Zea mays); [19],20
same,Velvetleaf plant response rating,[2]; [17],70
same,"Plant response rating, Velvetleaf",[2]; [18],100
same,"Plant response rating, Velvetleaf",[2]; [13],0
same,"Plant response rating, Velvetleaf",[2]; [19],40
same,"Crabgrass, Large plant response rating",[3]; [17],10
same,"Plant response rating, Crabgrass, Large",[3]; [18],40
same,"Plant response rating, Crabgrass, Large",[3]; [13],40
same,"Plant response rating, Crabgrass, Large",[3]; [19],70
same,Pigweed plant response rating,[4]; [17],50
same,"Plant response rating, Pigweed",[4]; [18],70
same,"Plant response rating, Pigweed",[4]; [13],30
same,"Plant response rating, Pigweed",[4]; [19],50
same,Morningglory plant response rating,[5]; [17],10
same,"Plant response rating, Morningglory",[5]; [18],20
same,"Plant response rating, Morningglory",[5]; [13],0
same,"Plant response rating, Morningglory",[5]; [19],0
same,Barnyardgrass plant response rating,[6]; [17],20
same,"Plant response rating, Barnyardgrass",[6]; [18],60
same,"Plant response rating, Barnyardgrass",[6]; [13],0
same,"Plant response rating, Barnyardgrass",[6]; [19],70
same,"Foxtail, Giant plant response rating",[7]; [17],30
same,"Plant response rating, Foxtail, Giant",[7]; [18],70
same,"Plant response rating, Foxtail, Giant",[7]; [13],30
same,"Plant response rating, Foxtail, Giant",[7]; [19],70
same,"Plant response rating, Flood, Rice",rice (Oryza sativa),10
same,"Plant response rating, Rice",rice (Oryza sativa); [20],0
same,"Plant response rating, Rice",rice (Oryza sativa); [21],0
same,"Plant response rating, Rice",rice (Oryza sativa); [15],0
same,"Plant response rating, Flood, Ducksalad",[8],75
same,"Plant response rating, Ducksalad",[8]; [20],0
same,"Plant response rating, Ducksalad",[8]; [21],40
same,"Plant response rating, Ducksalad",[8]; [15],75
same,"Plant response rating, Flood, Barnyardgrass",[9],10
same,"Plant response rating, Barnyardgrass",[9]; [20],0
same,"Plant response rating, Barnyardgrass",[9]; [21],0
same,"Plant response rating, Barnyardgrass",[9]; [15],0
same,"Plant response rating, Flood, Sedge, Umbrella",[10],50
same,"Plant response rating, Sedge, Umbrella",[10]; [20],0
same,"Plant response rating, Sedge, Umbrella",[10]; [21],0
same,"Plant response rating, Sedge, Umbrella",[10]; [15],40
O=C1CCCC(O)=C1C(=O)c1cnc(-c2ccccc2)n(-c2cccc(F)c2)c1=O [Compound 22],Wheat plant response rating,[1]; [17],0
same,"Plant response rating, Wheat",[1]; [18],0
same,"Plant response rating, Wheat",[1]; [13],0
same,"Plant response rating, Wheat",[1]; [19],0
same,Corn plant response rating,corn (Zea mays); [17],0
same,"Plant response rating, Corn",corn (Zea mays); [18],40
same,"Plant response rating, Corn",corn (Zea mays); [13],0
same,"Plant response rating, Corn",corn (Zea mays); [19],0
same,Velvetleaf plant response rating,[2]; [17],100
same,"Plant response rating, Velvetleaf",[2]; [18],100
same,"Plant response rating, Velvetleaf",[2]; [13],30
same,"Plant response rating, Velvetleaf",[2]; [19],100
same,"Crabgrass, Large plant response rating",[3]; [17],40
same,"Plant response rating, Crabgrass, Large",[3]; [18],80
same,"Plant response rating, Crabgrass, Large",[3]; [13],40
same,"Plant response rating, Crabgrass, Large",[3]; [19],90
same,Pigweed plant response rating,[4]; [17],80
same,"Plant response rating, Pigweed",[4]; [18],100
same,"Plant response rating, Pigweed",[4]; [13],70
same,"Plant response rating, Pigweed",[4]; [19],90
same,Morningglory plant response rating,[5]; [17],30
same,"Plant response rating, Morningglory",[5]; [18],100
same,"Plant response rating, Morningglory",[5]; [13],20
same,"Plant response rating, Morningglory",[5]; [19],70
same,Barnyardgrass plant response rating,[6]; [17],10
same,"Plant response rating, Barnyardgrass",[6]; [18],70
same,"Plant response rating, Barnyardgrass",[6]; [13],10
same,"Plant response rating, Barnyardgrass",[6]; [19],100
same,"Foxtail, Giant plant response rating",[7]; [17],30
same,"Plant response rating, Foxtail, Giant",[7]; [18],80
same,"Plant response rating, Foxtail, Giant",[7]; [13],20
same,"Plant response rating, Foxtail, Giant",[7]; [19],80
same,"Plant response rating, Flood, Rice",rice (Oryza sativa),0
same,"Plant response rating, Rice",rice (Oryza sativa); [20],0
same,"Plant response rating, Rice",rice (Oryza sativa); [21],0
same,"Plant response rating, Rice",rice (Oryza sativa); [15],0
same,"Plant response rating, Flood, Ducksalad",[8],60
same,"Plant response rating, Ducksalad",[8]; [20],0
same,"Plant response rating, Ducksalad",[8]; [21],20
same,"Plant response rating, Ducksalad",[8]; [15],30
same,"Plant response rating, Flood, Barnyardgrass",[9],0
same,"Plant response rating, Barnyardgrass",[9]; [20],0
same,"Plant response rating, Barnyardgrass",[9]; [21],0
same,"Plant response rating, Barnyardgrass",[9]; [15],0
same,"Plant response rating, Flood, Sedge, Umbrella",[10],65
same,"Plant response rating, Sedge, Umbrella",[10]; [20],0
same,"Plant response rating, Sedge, Umbrella",[10]; [21],30
same,"Plant response rating, Sedge, Umbrella",[10]; [15],40
